The record followed here is patent publication US8937096B2, “Use of benzo-fused heterocyle sulfamide derivatives for the treatment of mania and bipolar disorder” (priority 2005, dated 2015).

Molecules are shown by their SMILES. Like-named read-outs stand apart in the source and are kept apart here.

Assay [1] has as its system Sprague Dawley rats. Nature of the assay: Forced Swim Test (Acute). It counts as in vivo, rat. The procedure: The Forced Swim test (FST) is a commonly used procedure to screen compounds for possible antidepressant properties. This test is also known as the behavioral despair test. Rodents placed in […] tanks filled with water present a wide variety of escape or immobility behaviors. Antidepressant drugs from different classes markedly increase escape behaviors and/or decrease latency or duration of immobility.
Venlafaxine and desipramine were dissolved in water. All drugs and their vehicles were administered orally (p.o.) by gavage in a volume of 5 mL/kg.
Male Sprague Dawley rats (140 to 160 g) from Charles River Laboratories Wilmington, Mass. were used. The animals went through a five-day quarantine period before being subjected to the experimental procedure.
Animals were housed in groups of four in plastic cages at an ambient temperature of 21° C. to 23° C. with an automated 12 hour light/dark cycle and access to water and commercial rodent food ad libitum. Animals were not handled more than for the routine bedding change prior to pre-test swim session.
Each experiment consisted of seven treatment groups with n=4 animals per group. A total of 28 animals per experiment were used. Two consecutive experiments (1 and 2, 3 and 4, and 5 and 6) were exact replicas of each other. […] One treatment group of n=4 animals in each experiment was a vehicle treated group. […] In experiments 5 and 6 the effects of venlafaxine and maprotyline at 12 mg/kg, 30 mg/kg, and 60 mg/kg were tested.
The basic apparatus consisted of a cylinder (46 cm tall×˜20 cm diameter) filled with water to 30 cm deep, at a temperature of 25±1° C. The automated version of the FST was used to perform the experiments. Plumbing for automatic filling and emptying water connected the four cylinders. Cylinders were placed in the dividing chambers 25 cm wide to separate animals visually. Each 5-minute experimental session was videotaped and analyzed in real time by computer software (Clever Systems, Inc.) for four animals at a time. The immobility, swimming, climbing and escape times were recorded by the software. The four activities are defined as follow. Immobility: the animal floats motionlessly or makes only those movements necessary to keep its head above water; Climb: the animal vigorously moves vertically while scratching the wall around the cylinder; Swim: the animal moves horizontally around in the cylinder more than necessary to keep its head above water; and Escape: sum of all vigorous active movements.
The ability of a test compound to decrease the duration or frequency of immobility, or changes in swimming, climbing and escape times, was measured using the FST procedure described above. […] The analysis of the results in the studies described was focused on the immobility time during 5-minute test session.
There were two swim sessions in each experiment. First, a pre-test swim session for 15 minutes was performed. Following 48 hours later was a test session of 5-minute duration. Upon completion of a swim session, each animal was placed under a heat lamp in a cage with soft bedding for approximately 15 minutes to prevent hypothermia.
Animals were pre-treated with a vehicle or test compound after completing the pre-test swim session, then 24 hours later and then shortly prior to the 5-minute test session; i.e., three injections were given to each animal between the two swim sessions that occurred on 3 consecutive days.
Data were analyzed using GraphPad Prism software (GraphPad Software, Inc. San Diego, Calif.). For the comparison of the effect of different doses for various drugs on immobility in the FST one-way ANOVA was used followed by Dunnett's multiple comparison test. […] The ED50 and Emax values were statistically compared using two-tail t-test.

Assay [2] has as its system submissive rats. Nature of the assay: Dominant-Submissive Relations (DSR) assay: Reduction of Submissive Behavior Model (RSBM) of depression. It counts as in vivo, rat. The procedure: (§1) The DSR assay is divided into two models: Reduction of Dominant Behavior Model (RDBM) of mania and Reduction of Submissive Behavior Model (RSBM) of depression. The RDBM, wherein the dominant animals are treated with test compound, is predictive of the ability of the test compound to treat mania. The RSBM, wherein the submissive animals are treated with test compound, is predictive of the ability of the test compound to treat depression.
(§2) Male Sprague Dawley rats (140 to 160 g) from Charles River Laboratories Wilmington, Mass. were used in this assay. Shipments of rats were received at two-week intervals. Each shipment went through five-day quarantine, one-week acclimation period, and one-week selection process, followed by five-weeks of drug or vehicle treatment to those pairs selected.
(§3) Rats were housed four per cage. Access to food was restricted to one hour per day after testing on Monday through Thursday. After testing on Friday, rats had free access to food until being fasted again on Sunday. At no time were the rats deprived of water. The food deprivation periods used had little effect on weight gain as the average weight of rats was about 300 g at the end of the study. At the conclusion of experiment rats were sacrificed by decapitation, the trunk blood and brains were collected for in vitro experiments and drug concentration measurements.
(§4) The basic testing apparatus consisted of two chambers connected with a tunnel only large enough to allow one rat to pass through at a time. On the floor, at the mid-point of the tunnel was a container of sweetened milk. This basic apparatus was replicated, so that a total of four pairs of rats can be video tracked simultaneously. The camera can distinguish rats marked by different colors. Thus, the rats' heads were colored for the purpose of video tracking, red in one cage and yellow in the other cage. Only one animal at a time can have comfortable access to the feeder, but both animals can drink milk during the five-minute daily session. During the five-minute daily sessions, time spent in the feeder zone by each rat was recorded by the video tracking software and saved into a text file.
The test began with a random assignment of rats into pairs. Each member of a pair was placed in an opposite chamber of the testing apparatus. The time spent in the feeder zone by each animal was recorded. During the first week (five days) of testing the animals habituate to the new environment. Dominance was assigned to the animal with the highest score during the second week of testing if three criteria were achieved. First, there must have been a significant difference (two-tailed t-test, P<0.05) between the average daily drinking scores of both animals. Second, the dominant animal score must have been at least 25% greater than the submissive animal's score. Finally, there must have been no “reversals” during the pair selection week where the putative submissive rat out-scored its dominant partner on isolated occasions. Ideally there were minimal reversals during the acclimation week as well. About twenty-five to thirty-three percent of the initial animal pairs achieved these criteria and only these pairs were continued in the study. […]
(§5) Significant differences between time spent on the feeder by dominant and submissive rats were determined by ANOVA using GraphPad Prism software (GraphPad Software, Inc. San Diego, Calif.) followed by a two-tailed t-test (P<0.05). Comparisons were made between treatment groups using normalized dominance level values in paired animals. The dominance level is a value that measures social relation between paired subjects. Dominance level (DL)=FTD−FTS where FTD is the feeder time of dominant rats and FTS is the feeder time of submissive rats. The normalization was conducted according to the formula: Dominance Level(week n in %)=(Dominance Level(week n))/(Dominance Level(week 2) […]

In assay [3] the test system is CH3/HeJ mice. Nature of the assay: Tail Suspension Test (Acute). The conditions noted are these: for ED50: Mus musculus, po, 7 min; for Immobility Emax % of C / Mobility Emax % of C: p.o., CH3/HeJ mice, 7-min session. It counts as in vivo, mouse. The procedure:
In the tail suspension test (TST) for evaluating compounds for anti-depressant activity, mice are suspended by their tails to a metal or plastic rod using clip or scotch tape. The test is usually quite short, 5-7 min, and the amount of time the mice spend immobile is recorded either manually or with an automated device. Agents which have antidepressant activity, decrease the duration of immobility of mice in this test.
The basic apparatus for the tail suspension assay consisted of a yellow plastic chamber (91×45×10 cm) divided for four arenas 25, 20, 20 and 25 cm wide separated by yellow plastic walls 0.75 cm thick. Mice were suspended by their tails using a rubber clip (7 cm long) attached to the plastic rod that was placed on the top of a testing chamber half way through its deep dimension. Each experimental session was videotaped and analyzed for four animals in the real time by computer software (“Depression Scan” Clever Sys Inc.). The computer justification of immobility was calibrated with the use of animals dosed with lorazepam while justification of movement was calibrated with the high dose of desipramine treated animals. […] The settings were adjusted separately for dark (CH3/HeJ and C57BI/6J strains) and white mice (Balb/cJ and A/J strains). A yellow background was used for dark mice and a blue background was used to record movements of white mice.
The ability of a test compound to decrease the duration of immobility, or increase mobility was measured using the TST procedure described above.
Data were analyzed using GraphPad Prism software (GraphPad Software, Inc. San Diego, Calif.). For the comparison of the effect of different doses for various drugs on immobility in the TST one-way analyses of variance (ANOVA) were used followed by Dunnett's multiple comparison test. […] The ED50 and Emax values were compared using two-way ANOVA and Bonferroni post-hoc test.
Positive controls included duloxetine (DLX), venlafaxine (VLX) and desipramine (DMI) which were dissolved in 0.5% methylcellulose and lorazepam (LOR) which was suspended in 0.5% of methylcellulose in water by sonication. All drugs and vehicles were administered orally (p.o.) by gavage in a volume of 10 mL/kg.
The mice were ordered 5 weeks old and at the beginning of experiment their weight was 20±5 g. Animals were housed in groups of four in plastic cages at an ambient temperature of 21° C. to 23° C. with an automated 12/12 hours light/dark cycle and access to water and a commercial rodent food ad libitum.
Each experiment consisted of seven treatment groups with four animals per group. A total of 28 animals per experiment were used. Every two consecutive experiments (1 & 2, 3 & 4, 5 & 6 and 7 & 8) were exact replicas of each other. […] One treatment group of four animals in each experiment was a vehicle treated group. In addition to the vehicle treated group, the effects of DMI at 6 mg/kg, 12 mg/kg, 30 mg/kg, 60 mg/kg and 120 mg/kg and LOR at 5 mg/kg were tested in experiments 1 and 2. […] In experiments 5 and 6 the effects of DLX at 6 mg/kg, 12 mg/kg, 30 mg/kg, 60 mg/kg, 120 mg/kg and LOR at 5 mg/kg were tested.

The test system of assay [4] is dominant rats. Nature of the assay: Dominant-Submissive Relations (DSR) assay: Reduction of Dominant Behavior Model (RDBM) of mania. It counts as in vivo, rat. As to the method:
as §1, §2, §3, §4
The test began with a random assignment of rats into pairs. Each member of a pair was placed in an opposite chamber of the testing apparatus. The time spent in the feeder zone by each animal was recorded. During the first week (five days) of testing the animals habituate to the new environment. Dominance was assigned to the animal with the highest score during the second week of testing if three criteria were achieved. First, there must have been a significant difference (two-tailed t-test, P<0.05) between the average daily drinking scores of both animals. Second, the dominant animal score must have been at least 25% greater than the submissive animal's score. Finally, there must have been no “reversals” during the pair selection week where the putative submissive rat out-scored its dominant partner on isolated occasions. Ideally there were minimal reversals during the acclimation week as well. About twenty-five to thirty-three percent of the initial animal pairs achieved these criteria and only these pairs were continued in the study.
as §5

Assay [5] concerns hippocampal kindled seizures. Nature of the assay: Rat Hippocampal Kindling Test (Interruption of Kindled State). It counts as in vivo. The conditions noted are these: reference drugs; suppression at doses associated with toxicity. As to the method: In the present rapid hippocampal kindling model adult male Sprague-Dawley rats (300-400 g) were surgically implanted with bipolar electrodes placed in the hippocampus. […] One week later, the rats received 2-3 supra-threshold stimulations delivered every 30 min before treatment with test compound, to ensure stability of the behavioral seizure stage and after-discharge duration. Fifteen minutes after the last stimulation, a single dose of vehicle or test compound was administered i.p. (intraperitoneally). After 15 min, each rat was then stimulated every 30 min for 3 to 4 h. After each stimulation, individual seizure scores and after-discharge durations were recorded. The group mean±SEM were calculated for each parameter. Eight rats per dose and a minimum of four doses were used to establish an ED50 value. Efficacy was measured as the ability of a compound to modify the seizure score (severity of spread) and after-discharge duration (ADD; excitability) of the generalized seizures.
Thus, according to the theories presented in current literature (Ghaemi, S. N., Boiman, E. E., and Goodwin, F. K., Soc. of Bio. Psychiatry, (1999), vol. 45, pp 137-144; Stoll, A. L., and Severus, W. E., Harvard Rev. Psychiatry, July/August (1996), Vol. 4, No. 2, pp 77-89) a decrease in seizure score and/or ADD may also be predictive of the ability of a test compound to treat the cycling associated with bipolar disorder.

For the molecule `CNCCCC12CCC(c3ccccc31)c1ccccc12` [maprotyline], the “doses at which effect on immobility was statistically significant vs vehicle” value in assay [1] (p.o.) is 30 mg/kg and 60 mg/kg.
`CNCCC(Oc1ccc(C(F)(F)F)cc1)c1ccccc1` (centres unmarked) [fluoxetine, reference compound]: the “submissiveness during first week of treatment” value in assay [2] (fluoxetine 10 mg/kg i.p., Compound #8 treated groups p.o.) is listed as “increased submissiveness during first week of treatment”. For the same molecule, the “significant difference between dominant and submissive rats lost” value in assay [2] (submissive rats treated i.p. at 10.0 mg/kg) is on record as “lost after third week of treatment”.
As a reminder, the ED50 is the dose that gives a 50% effect, or the effect in half of the subjects. Consider `CNCC[C@H](Oc1cccc2ccccc12)c1cccs1` [DLX, duloxetine], for which, in assay [3] (read-out: Immobility ED50), the ED50 stood at 31.4 mg/kg. For the same molecule, in assay [3] (read-out: Mobility ED50), the ED50 turned out to be 61.5 mg/kg. Moreover, in assay [3], the “Immobility Emax % of C” value is recorded as 80.4 % of C and the “Mobility Emax % of C” value was 175.5 % of C.
`[Cl-].[Li+]` [lithium chloride, reference compound]: the “dominance level effect vs control” value in assay [4] (100 mg/kg) is given as “significantly different from control only after the third week of treatment”.
With `NC(=O)N1c2ccccc2C=Cc2ccccc21` [Carbamazepine], in assay [5], the “seizure activity in the hippocampal kindling model” value is on record as “significantly suppressed seizure activity”.
With `CCCC(CCC)C(=O)[O-].[Na+]` [sodium valproate, reference compound], the dominance level result in assay [4] (30 mg/kg i.p. QD) is listed as “decreased dominance level after the second week of treatment”. For the same molecule, the “difference between dominant and submissive rats lost” value in assay [4] (dominant rats treated i.p. QD at 30 mg/kg) is on record as “lost after first week of treatment”. Moreover, the “permissiveness of the treated dominant rats” value in assay [4] (treated dominant rats permitted submissive partners to increase time on the feeder) is “observed to increase”.
On to `CNCCCN1c2ccccc2CCc2ccccc21` [DMI, desipramine], for which, in assay [3], the “Immobility Emax % of C” value is recorded as 38.5 % of C and the “Mobility Emax % of C” value was 195.7 % of C. Further, in assay [1] (p.o.), the “Emax (immobility) in the FST” value amounted to 50.0 ± 8.4 s; the “doses at which effect on immobility was statistically significant vs vehicle” value was 6 mg/kg, 12 mg/kg, 30 mg/kg, and 60 mg/kg.
As for `O=C1Nc2ccc(Cl)cc2C(c2ccccc2Cl)=NC1O` (centres unmarked) [Lorazepam, lorazepam], in assay [1] (1 mg/kg p.o., negative control), the “effect on the rats' immobility time” value is “no significant effect”.
